In publication PMC10468765, “Substituted 1,2,4-Triazoles as Novel and Selective Inhibitors of Leukotriene Biosynthesis Targeting 5-Lipoxygenase-Activating Protein” (ACS Omega, 2023):

System: 5-lipoxygenase-activating protein (FLAP)
Assay: cells
Design: species or system human neutrophils; Inhibition of 5-LO product formation (LTB4, its trans isomers, 5-H(p)ETE) in A23187-stimulated human neutrophils, FLAP-dependent assay
Details: Neutrophil; 2.5 uM A23187

Row | Structure (SMILES) | IC50
1 | N#Cc1ccc(-c2nnc(SCc3nc4ccccc4s3)n2-c2ccccc2)cc1 [6z] | 1930 ± 370 nM
2 | COc1cccc(-n2c(SCc3nc4ccccc4s3)nnc2-c2cccs2)c1 [6c] | 1580 ± 590 nM
3 | COc1ccc(-n2c(SCc3nc4ccccc4s3)nnc2-c2ccccc2)cc1 [6q] | 1280 ± 190 nM
4 | Clc1ccc(-n2c(SCc3nc4ccccc4s3)nnc2-c2cccs2)cc1 [6d] | 1360 ± 270 nM
5 | COc1ccc(-n2c(SCc3nc4ccccc4s3)nnc2-c2ccc(C#N)cc2)cc1 [6s] | 1920 ± 580 nM

Now from value to molecule:

Row | IC50 | Structure (SMILES)
6 | 2180 ± 650 nM | COc1ccc(-n2c(SCc3nc4ccccc4s3)nnc2-c2cccs2)cc1 [6a]
7 | 1420 ± 310 nM | COc1ccc(-n2c(SCc3ccc(C(F)(F)F)o3)nnc2-c2cccs2)cc1 [6l]
8 | 3010 ± 840 nM | COc1ccc(-n2c(OCc3nc4ccccc4s3)nnc2-c2cccs2)cc1 [6n]
9 | 4170 ± 270 nM | COc1cccc(-n2c(SCc3ccc4ccccc4n3)nnc2-c2cccs2)c1 [6k]
10 | 3690 ± 1020 nM | COc1ccc(-n2c(SCc3ccc4ccccc4n3)nnc2-c2cccs2)cc1 [6j]
11 | 6340 ± 790 nM | COc1ccc(-n2c(OCc3ccc4ccccc4n3)nnc2-c2cccs2)cc1 [6o]
